From patent US8759520B2, “Compounds for treating cancer” (Boehringer Ingelheim International GmbH, priority 2008, dated 2014)
pIC50: −log10 of the molar value.

These molecules were tested against Bcl-2 (Homo sapiens, UniProt P10415) (assay: Homogeneous HTS assay for inhibitors of the Bcl-2 : Bak (72-87) BH3 domain interaction, fluorescence polarisation (2D-FIDA)). Conditions: not given.
Assay type: binding
Description: FIG. 1 is a schematic drawing of the Bcl-2: Bak (72-87) interaction assay based on fluorescence polarisation.
The homogeneous HTS assay for inhibitors of the Bcl-2 is shown schematically in FIG. 1. BH3 domain interaction is based on fluorescence polarisation. The inherent rotational diffusion of the Bak BH3 domain derived fluorescent labelled peptide decreases upon binding to Bc1-2. This shift in rotational diffusion is quantitated using the two-dimensional fluorescence intensity distribution analysis (2D-FIDA; Kask et al. 2000, Biophys. J. 78: 1703-1713).
Two different BH3 domain derived peptide ligands were synthesised and subsequently fluorescently labelled: • a 16mer peptide covering amino acids 72-87 of the Bak protein; this peptide had been used by Wang and co-workers and Holinger and coworkers in their Bcl-2 protein binding studies; Wang and co-workers reported an equilibrium binding constant KD of ˜0.2 μM to Bcl-2 protein; • peptide sequence: GQVGRQLAIIGDDINR—N (Wang et al. 2002, Proc. Natl. Acad. Sci. U.S.A. 97: 7124-7129; Holinger et al. 1999, J. Biol. Chem. 274: 13298-13304).

Chain of Bcl-2 (P10415 whole entry, species assumed, the tested form may be a part): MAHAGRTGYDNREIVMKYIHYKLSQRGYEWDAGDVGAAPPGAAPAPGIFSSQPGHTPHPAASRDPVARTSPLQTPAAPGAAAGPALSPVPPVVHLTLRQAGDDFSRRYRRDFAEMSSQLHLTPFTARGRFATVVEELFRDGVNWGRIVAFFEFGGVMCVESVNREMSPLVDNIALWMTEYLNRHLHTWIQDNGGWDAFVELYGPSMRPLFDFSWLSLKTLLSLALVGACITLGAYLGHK

SMILES	pIC50
N=c1n(CCCOc2ccc(F)cc2)c2ccccc2n1Cc1ccc(Cl)nc1 [Compound 52, 1-(6-Chloro-pyridin-3-ylmethyl)-3-[3-(4-fluoro-phenoxy)-propyl]-1,3-dihydro-benzoimidazol-2-ylideneamine]	4.00 to 4.96

Same assay, conditions: fluorescence polarisation, fluorescent labelled Bak BH3 domain derived peptide; read-out: IC50 [μM] Bcl-2

IC50	SMILES
11 to 100 µM	N=c1n(CCCOc2ccc(F)cc2)c2ccccc2n1Cc1ccc(CN2CCN(Cc3ccccc3Cl)CC2)cc1 [Compound 48, 1-{4-[4-(2-Chloro-benzyl)-piperazin-1-ylmethyl]-benzyl}-3-[3-(4-fluoro-phenoxy)-propyl]-1,3-dihydro-benzoimidazol-2-ylideneamine]
11 to 100 µM	N=c1n(CCCOc2ccc(F)cc2)c2ccccc2n1Cc1ccc(CN2CCN(Cc3ccccc3-c3ccccc3)CC2)cc1 [Compound 49, 1-[4-(4-Biphenyl-2-ylmethyl-piperazin-1-ylmethyl)-benzyl]-3-[3-(4-fluoro-phenoxy)-propyl]-1,3-dihydro-benzoimidazol-2-ylideneamine]
11 to 100 µM	N=c1n(CCCOc2ccc(F)cc2)c2ccccc2n1Cc1ccc(N2CCN(Cc3ccccc3)CC2)nc1 [Compound 53, 1-[6-(4-Benzyl-piperazin-1-yl)-pyridin-3-ylmethyl]-3-[3-(4-fluoro-phenoxy)-propyl]-1,3-dihydro-benzoimidazol-2-ylideneamine]
11 to 100 µM	N=c1n(CCCOc2ccc(F)cc2)c2ccccc2n1Cc1ccc(N2CCN(Cc3ccc(Cl)cc3)CC2)nc1 [Compound 55, 1-{6-[4-(4-Chloro-benzyl)-piperazin-1-yl]-pyridin-3-ylmethyl}-3-[3-(4-fluoro-phenoxy)-propyl]-1,3-dihydro-benzoimidazol-2-ylideneamine]
< 10 µM	N=c1n(CCCOc2ccc(F)cc2)c2ccccc2n1Cc1ccc(N2CCN(Cc3ccccc3-c3ccccc3)CC2)nc1 [Compound 56, 1-[6-(4-Biphenyl-2-ylmethyl-piperazin-1-yl)-pyridin-3-ylmethyl]-3-[3-(4-fluoro-phenoxy)-propyl]-1,3-dihydro-benzoimidazol-2-ylideneamine]
11 to 100 µM	N=c1n(CCCOc2ccc(F)cc2)c2cc(C(F)(F)F)ccc2n1Cc1ccc(Br)cc1 [Compound 60, 1-(4-Bromo-benzyl)-3-[3-(4-fluoro-phenoxy)-propyl]-5-trifluoromethyl-1,3-dihydro-benzoimidazol-2-ylideneamine]
< 10 µM	Cc1ccc2c(c1)n(Cc1ccc(N3CCN(Cc4ccccc4-c4ccccc4)CC3)cc1)c(=N)n2CCCOc1ccc(F)cc1 [Compound 62, 3-[4-(4-Biphenyl-2-ylmethyl-piperazin-1-yl)-benzyl]-1-[3-(4-fluoro-phenoxy)-propyl]-5-methyl-1,3-dihydro-benzoimidazol-2-ylideneamine]
< 10 µM	CC1(C)CCC(c2ccc(Cl)cc2)=C(CN2CCN(c3ccc(Cn4c(=N)n(CCCOc5ccc(F)cc5)c5ccc(F)cc54)cc3)CC2)C1 [Compound 64, 3-(4-{4-[2-(4-Chloro-phenyl)-5,5-dimethyl-cyclohex-1-enylmethyl]-piperazin-1-yl}-benzyl)-5-fluoro-1-[3-(4-fluoro-phenoxy)-propyl]-1,3-dihydro-benzoimidazol-2-ylideneamine]
11 to 100 µM	COC(=O)c1ccc(OCCCn2c(=N)n(Cc3ccc(Br)cc3)c3ccccc32)cc1 [Compound 66, 4-{3-[3-(4-Bromo-benzyl)-2-imino-2,3-dihydro-benzoimidazol-1-yl]-propoxy}-benzoic acid methyl ester]
11 to 100 µM	CCOC(=O)c1cccc(OCCCn2c(=N)n(Cc3cccc(Br)c3)c3ccccc32)c1 [Compound 68, 3-{3-[3-(3-Bromo-benzyl)-2-imino-2,3-dihydro-benzoimidazol-1-yl]-propoxy}-benzoic acid ethyl ester]

More lines, now with the values behind:

SMILES	IC50
N=c1n(CCCOc2ccc(F)cc2)c2ccccc2n1Cc1ccc(CN2CCN(Cc3ccccc3)CC2)cc1 [Compound 46, 1-[4-(4-Benzyl-piperazin-1-ylmethyl)-benzyl]-3-[3-(4-fluoro-phenoxy)-propyl]-1,3-dihydro-benzoimidazol-2-ylideneamine]	< 10 µM
N=c1n(CCCOc2ccc(F)cc2)c2ccccc2n1Cc1ccc(CN2CCN(Cc3cccc(Cl)c3)CC2)cc1 [Compound 47, 1-{4-[4-(3-Chloro-benzyl)-piperazin-1-ylmethyl]-benzyl}-3-[3-(4-fluoro-phenoxy)-propyl]-1,3-dihydro-benzoimidazol-2-ylideneamine]	< 10 µM
N=c1n(CCCOc2ccc(F)cc2)c2ccccc2n1Cc1ccc(CNCC(=O)Nc2cccc(Cl)c2)cc1 [Compound 50, N-(3-Chloro-phenyl)-2-(4-{3-[3-(4-fluoro-phenoxy)-propyl]-2-imino-2,3-dihydro-benzoimidazol-1-ylmethyl}-benzylamino)-acetamide]	11 to 100 µM
N=c1n(CCCOc2ccc(F)cc2)c2ccccc2n1Cc1ccc(CNCC(=O)Nc2ccccc2)cc1 [Compound 51, 2-(4-{3-[3-(4-Fluoro-phenoxy)-propyl]-2-imino-2,3-dihydro-benzoimidazol-1-ylmethyl}-benzylamino)-N-phenyl-acetamide]	11 to 100 µM
N=c1n(CCCOc2ccc(F)cc2)c2ccccc2n1Cc1ccc(N2CCN(Cc3cccc(Cl)c3)CC2)nc1 [Compound 54, 1-{6-[4-(3-Chloro-benzyl)-piperazin-1-yl]-pyridin-3-ylmethyl}-3-[3-(4-fluoro-phenoxy)-propyl]-1,3-dihydro-benzoimidazol-2-ylideneamine]	11 to 100 µM
N=c1n(CCCOc2ccc(F)cc2)c2ccccc2n1Cc1ccc(N2CCN(Cc3ccccc3Cl)CC2)nc1 [Compound 57, 1-{6-[4-(2-Chloro-benzyl)-piperazin-1-yl]-pyridin-3-ylmethyl}-3-[3-(4-fluoro-phenoxy)-propyl]-1,3-dihydro-benzoimidazol-2-ylideneamine]	11 to 100 µM
Cc1ccc2c(c1)n(Cc1ccc(Br)cc1)c(=N)n2CCCOc1ccc(F)cc1 [Compound 58, 3-(4-Bromo-benzyl)-1-[3-(4-fluoro-phenoxy)-propyl]-5-methyl-1,3-dihydro-benzoimidazol-2-ylideneamine]	11 to 100 µM
N=c1n(CCCOc2ccc(F)cc2)c2ccc(F)cc2n1Cc1ccc(Br)cc1 [Compound 59, 3-(4-Bromo-benzyl)-5-fluoro-1-[3-(4-fluoro-phenoxy)-propyl]-1,3-dihydro-benzoimidazol-2-ylideneamine]	11 to 100 µM
N=c1n(CCCOc2ccc(F)cc2)c2cc(F)ccc2n1Cc1ccc(Br)cc1 [Compound 61, 1-(4-Bromo-benzyl)-5-fluoro-3-[3-(4-fluoro-phenoxy)-propyl]-1,3-dihydro-benzoimidazol-2-ylideneamine]	11 to 100 µM
N=c1n(CCCOc2ccc(F)cc2)c2ccc(F)cc2n1Cc1ccc(N2CCN(Cc3ccccc3-c3ccccc3)CC2)cc1 [Compound 63, 3-[4-(4-Biphenyl-2-ylmethyl-piperazin-1-yl)-benzyl]-5-fluoro-1-[3-(4-fluoro-phenoxy)-propyl]-1,3-dihydro-benzoimidazol-2-ylideneamine]	11 to 100 µM
CCOC(=O)c1cccc(OCCCn2c(=N)n(Cc3ccc(Br)cc3)c3ccccc32)c1 [Compound 65, 3-{3-[3-(4-Bromo-benzyl)-2-imino-2,3-dihydro-benzoimidazol-1-yl]-propoxy}-benzoic acid ethyl ester]	11 to 100 µM
COC(=O)c1ccc(OCCCn2c(=N)n(Cc3cccc(Br)c3)c3ccccc32)cc1 [Compound 67, 4-{3-[3-(3-Bromo-benzyl)-2-imino-2,3-dihydro-benzoimidazol-1-yl]-propoxy}-benzoic acid methyl ester]	11 to 100 µM
